Results reported in the NIST ThermoML archive (doi:10.1016/j.tca.2010.11.011).
± gives the expanded uncertainty stated by the source.

Columns and labels:
[1] = DTA; for Normal melting temperature: Crystal; for Triple point temperature: Crystal 2
[2] = Molar enthalpy of transition or fusion; details: DSC

| Structure (SMILES) | Normal melting temperature [1] | Molar enthalpy of transition or fusion ([2]; Crystal) | Triple point temperature [1] | Molar enthalpy of transition or fusion ([2]; Crystal 2) |
| --- | --- | --- | --- | --- |
| O=C(O)CCCCC(=O)O [1,6-hexanedioic acid] | 153.00 ± 4 °C | 9.08 ± 0.239 kcal/mol | – | – |
| O=C(O)CCCCCCCCC(=O)O [1,10-decanedioic acid] | 132.00 ± 4 °C | 11 ± 0.287 kcal/mol | – | – |
| CC(CO)(CO)C(=O)O [2,2-bis(hydroxymethyl)propanoic acid] | – | – | 458.15 ± 1 K | 9.26 ± 0.263 kcal/mol |
| NC(CO)(CO)CO [2-amino-2-(hydroxymethyl)-1,3-propanediol] | – | – | 405.15 ± 1 K | 8.25 ± 0.232 kcal/mol |

The next lines start with the values.

| Normal melting temperature [1] | Molar enthalpy of transition or fusion ([2]; Crystal) | Triple point temperature [1] | Molar enthalpy of transition or fusion ([2]; Crystal 2) | Structure (SMILES) |
| --- | --- | --- | --- | --- |
| 135.00 ± 8 °C | 6.52 ± 0.194 kcal/mol | – | – | O=C(O)/C=C\C(=O)O [cis-1,4-butenedioic acid] |
| 142.00 ± 1 °C | 7.89 ± 0.232 kcal/mol | – | – | COC(=O)c1ccc(C(=O)OC)cc1 [dimethyl 1,4-benzenedicarboxylate] |
| 131.00 ± 1 °C | 5.63 ± 0.177 kcal/mol | – | – | O=C1OC(=O)c2ccccc21 [isobenzofuran-1,3-dione] |
